Experimental data from patent publication US20250340590A1, “PEPTIDE HAVING ANTI-INFLAMMATORY ACTIVITY AND USE THEREOF” (CAREGEN CO., LTD., priority 2021, published 2025).

Tests used:
Cox2 [1] = assay: Cox2 protein level by Western blot in HaCaT cells induced with LPS, TGFβ and IL-23; assay type: cell-based, human; settings: IL-23 and LPS, peptide at 5 μM and 50 μM, 24 hours, compared to group not treated with the peptide
Procedure: In order to further confirm the anti-inflammatory effect of the peptide treatment of the present invention in addition to the results of Experimental Example 1, HaCaT cells were treated with Th17 (type 17), which is an inflammation-inducing substance, and the expression levels of inflammation-inducing markers iNos and Cox2 were confirmed. As the inflammation-inducing substances, the cells were treated with LPS, TGFβ, and IL-23, and since iNos is an enzyme involved in the production of nitric oxide (NO), which is an inflammation-related protein induced by LPS, etc., it is possible to confirm whether inflammation is inhibited by measuring the expression levels of iNos and Cox2.
HaCaT cells were dispensed into a 24-well plate at a concentration of 3× 10^5 cells/well and cultured until the next day. The medium was replaced with serum-free medium, and after 4 hours, the cells were treated with TGFβ, IL-23, and LPS, which are Th17 type inflammation-inducing cytokines, and then with the peptide of the present invention and cultured again for another 24 hours. […] In order to perform Western blotting, the amounts of iNos and Cox2 proteins were measured using an anti-iNos antibody and an anti-Cox2 antibody (Cell Signaling Technology, USA). […]

IL-1β = IL-1β secretion by ELISA in mouse splenocytes induced with LPS, TGFβ and IL-23; assay type: cell-based; settings: LPS 2 μg/mL, TGFβ 20 ng/ml, IL-23 20 ng/mL, 24 hours
Source text: Inflammation was induced by treating mouse splenocytes with LPS, which is an inflammation-inducing antigen, and TGFβ and IL-23, which are inflammatory cytokines, and the secretion amounts of the inflammatory cytokines IL-17, IL-1β, and IFNγ were confirmed. The descriptions of IL-17, IL-1B, and IFNγ are the same as above.
Mouse splenocytes were dispensed into a 24-well plate at a concentration of 1×10^7 cells/well and cultured until the next day. The medium was replaced with serum-free medium, and after 4 hours, the cells were treated with LPS, TGFβ, and IL-23 and the peptide of the present invention and then cultured again for another 24 hours. In order to induce inflammation, the cells were treated with LPS at 2 μg/mL, TGFβ at 20 ng/ml, IL-23 at 20 ng/mL, and the peptide at 5 μM and 50 μM, respectively. The mouse splenocytes in the group in which inflammation was not induced due to untreatment with LPS, TGFβ, and IL-23 (NON); the negative control group in which the cells were treated with LPS, TGFβ, and IL-23 but not treated with the peptide (NC); and the group in which the cells were treated with LPS, TGFβ, and IL-23 along with the peptide of the present invention at the same concentration as above, respectively, were reacted as described above and the cell cultures were recovered. […]

Cox2 [2] = assay: Cox2 mRNA level by RT-PCR in TNFα-induced mouse splenocytes; assay type: cell-based; settings: TNFα 20 nM, peptide at 5 μM and 50 μM, 3 hours, compared to group not treated with the peptide
Procedure: In order to further confirm the anti-inflammatory effect of the peptide treatment of the present invention in addition to the results of Experimental Example <3-1>, inflammation was induced by treating mouse splenocytes with TNFα, and the expression levels of inflammatory cytokines TNFα and IL-1β, and Cox2, which is an inflammation-inducing marker, genes were confirmed. In order to induce inflammation, the cells were treated with cytokine TNFα, and since TNFα corresponds to a signaling protein associated with inflammation, IL-1β corresponds to a cytokine that promotes inflammation, and Cox2 is a protein associated with inflammation, the degree of inflammation can be confirmed by measuring the expression levels of TNFα, Cox2, and IL-1β genes.
Mouse splenocytes were dispensed into a 24-well plate at a concentration of 1× 10^7 cells/well and cultured until the next day. The medium was replaced with serum-free medium, and after 3 hours, the cells were treated with TNFα and the peptide of the present invention and then cultured for another 3 hours. In order to induce inflammation, the cells were treated with TNFα at 20 nM, and the peptide at 5 μM and 50 μM, respectively. […] After quantifying the amount of isolated RNA, cDNA was synthesized using a cDNA synthesis kit (Intron, Korea), PCR was performed using a PCR premix (Intron, Korea) and primers for TNFα, Cox2, and IL-1B. […]

TWNS [peptide of the present invention]
decreased: expression level of Cox2 protein (Cox2 [1]) | secretion amount of IL-1β (IL-1β; peptide at 5 μM) | secretion amount of IL-1β (IL-1β; peptide at 50 μM) | mRNA expression level of Cox2 (Cox2 [2])
